“And” between values parts separate entries of the source, which are not always exact repeats. Identical values can stand only once.
Assays:
avoidance response = experiment: Active avoidance test; format: in vivo; details: Rattus norvegicus; male Fischer 344 rats; oral, 60 minutes prior to the test; read-out: Inhibition of avoidance response (ED50)
Source text: Effect of Treatment in Active Avoidance Test.
The administration of incremental doses of an antipsychotic drug in the rat causes inhibition of the active avoidance response and an increase in the number of escape responses without any increase in failures. This change in the animal's avoidance behaviour is characteristic of the effect of the administration of a compound endowed with anti-psychotic activity. Therefore, the evaluation of such behaviour enables us to detect and determine the antipsychotic capacity of a product.
Male Fischer 344 rats weighing 180 g (Charles River) were used.
To carry out the test to assess the avoidance behaviour of the rats a piece of equipment was used (Ugo Basile) consisting of a plastic cage divided into two compartments by a partition wall with an aperture in it allowing communication between the two sectors. Each of the two sectors can be illuminated by a 10 Watt lamp placed above a plexiglas lid covering the cage. A programming device allows the regulation of the duration and frequency of the unconditioned and discriminatory stimuli and a computerised system acquires the experimental data. […]
Before treatment with the study compounds, the animals were selected in relation to their ability to master the task. […] The results were expressed as means and standard errors.

catalepsy [1] = experiment: in vivo; details: male, Wistar, rat, po, Induction of catalepsy (ED50)
Method: Effect of Treatment in Catalepsy Test.
(§1) The test was carried out on male rats of the Wistar strain (n=7 animals); evaluation of catalepsy was done by means of a metal rod measuring 0.6 cm in diameter positioned at a distance of 10 cm from the work surface. […] Subsequent observations were recorded at 60, 90, 120, 180, 240, and 300 minutes after administration.

D1 receptor = D1 receptor (Rattus norvegicus, UniProt P18901)
Method: (§2) For the D2 receptor ^3H-Spiperone (0.2 nM) was used and the non-specific binding was determined in the presence of 100 μM of (−)sulpiride. As regards the D3 receptor, the radioligand selected 3H-7-OH-DPAT was used at the concentration of 0.2 μM and the non-specific binding was obtained in the presence of dopamine 10 μM. Lastly, interaction with 5HT2a was evaluated using ^3H-ketanserin (0.7 μM) and the non-specific binding was determined in the presence of methysergide 1 μM.

5HT2a receptor = molecular target: T1, 5HT2a receptor (Rattus norvegicus, UniProt P14842); experiment: Radioligand binding to 5HT2a receptor (prefrontal cortex, 3H-ketanserin)
T1 construct: using different cerebral areas (striate D1 and D2; prefrontal cortex 5HT2a); from tissue; host or cells: prefrontal cortex
Method: as §2

[2] = molecular target: T2, cloned dopamine receptor subtype 3 (Rattus norvegicus, UniProt P19020); experiment: Radioligand binding to D3 receptor (transfected Sf9 cell membranes, 3H-7-OH-DPAT)
T2 construct: purchased Signal Screen; host or cells: Sf9 cells
Method: as §2

catalepsy [3] = details: rat, in vivo, po, 100 mg/kg
Method: Effect of Treatment in Catalepsy Test.
as §1

T1 sequence (P14842 whole entry): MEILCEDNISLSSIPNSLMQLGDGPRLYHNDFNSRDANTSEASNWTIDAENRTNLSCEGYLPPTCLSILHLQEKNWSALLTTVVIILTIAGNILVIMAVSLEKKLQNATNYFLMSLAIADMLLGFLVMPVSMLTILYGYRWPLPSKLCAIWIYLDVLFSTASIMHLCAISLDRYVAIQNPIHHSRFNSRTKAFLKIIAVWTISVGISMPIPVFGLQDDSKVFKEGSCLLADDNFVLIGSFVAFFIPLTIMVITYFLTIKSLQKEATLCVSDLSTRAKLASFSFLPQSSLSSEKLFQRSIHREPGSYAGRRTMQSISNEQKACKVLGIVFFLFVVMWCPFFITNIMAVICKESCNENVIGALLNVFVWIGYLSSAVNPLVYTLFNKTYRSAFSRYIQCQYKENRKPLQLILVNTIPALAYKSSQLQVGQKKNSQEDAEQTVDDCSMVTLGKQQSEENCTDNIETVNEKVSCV
Sequence of D1 receptor (P18901 whole entry): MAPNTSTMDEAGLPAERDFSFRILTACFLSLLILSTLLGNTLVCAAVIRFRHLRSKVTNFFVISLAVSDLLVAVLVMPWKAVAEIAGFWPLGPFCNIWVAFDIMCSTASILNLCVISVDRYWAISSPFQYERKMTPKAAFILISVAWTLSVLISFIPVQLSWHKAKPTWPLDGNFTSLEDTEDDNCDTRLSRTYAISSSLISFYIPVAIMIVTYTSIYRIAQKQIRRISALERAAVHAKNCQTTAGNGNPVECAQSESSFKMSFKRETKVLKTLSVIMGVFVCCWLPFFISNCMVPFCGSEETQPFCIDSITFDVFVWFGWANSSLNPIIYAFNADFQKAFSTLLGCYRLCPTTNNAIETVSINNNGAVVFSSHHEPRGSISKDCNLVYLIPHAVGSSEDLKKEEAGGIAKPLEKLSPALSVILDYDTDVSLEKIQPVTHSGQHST
T2 sequence (P19020 whole entry): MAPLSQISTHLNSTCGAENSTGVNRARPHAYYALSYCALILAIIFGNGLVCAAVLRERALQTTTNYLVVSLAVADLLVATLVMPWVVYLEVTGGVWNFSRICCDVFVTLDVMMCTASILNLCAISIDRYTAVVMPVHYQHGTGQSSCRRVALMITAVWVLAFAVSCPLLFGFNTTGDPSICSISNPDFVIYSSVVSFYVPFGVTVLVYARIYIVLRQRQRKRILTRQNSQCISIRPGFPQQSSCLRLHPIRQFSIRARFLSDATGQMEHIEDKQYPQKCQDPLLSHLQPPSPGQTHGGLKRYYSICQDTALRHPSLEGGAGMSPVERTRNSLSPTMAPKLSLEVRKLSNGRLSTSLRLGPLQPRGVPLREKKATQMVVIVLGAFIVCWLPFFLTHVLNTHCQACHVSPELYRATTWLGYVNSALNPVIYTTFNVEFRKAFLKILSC

Row | D1 pKi (D1 receptor) | Ki (D1 receptor; read-out: D1 (Ki: nM), striate, [3H]-SCH 23390) [nM] | 5HT2A pKi (5HT2a receptor) | Log Y (5HT2a receptor; from relative affinity for 5HT2, D2 and D1, classic >6.48, atypical <6.48) | Ki (5HT2a receptor; prefrontal cortex, 3H-ketanserin) [nM] | Ki [2] [nM] | SMILES | ED50 (avoidance response) | ED50 (catalepsy [1]) | Presence of catalepsy (catalepsy [3])
1 | – | – | – | – | – | – | CN1CCN(C2=Nc3cc(Cl)ccc3Nc3ccccc32)CC1 [Clozapine, reference compound] | 4.9 mg/kg and 15 µmol/kg | 100 mg/kg and 276 µmol/kg | –
2 | 6.90 | 125 | 8.14 | 3.20 | 7.2 | 224 | CN1CCN(C2=Cc3ccccc3Cn3cccc32)CC1 [ST2329, 11-(4-Methylpiperazin-1-yl)-5H-pyrrolo[2,1-b][2]benzazepine] | 0.56 mg/kg and 2 µmol/kg | – | no presence of catalepsy was detected

Reference: patent publication US20080293689A1, “Compounds with Atypical Antipsychotic Activity” (SIGMA-TAU INDUSTRIE FARMACEUTICHE RIUNITE S.P.A., priority 2004, published 2008)
